Measurements reported in ChEMBL document CHEMBL3297669, “Suvanine sesterterpenes and deacyl irciniasulfonic acids from a tropical Coscinoderma sp. sponge” (J Nat Prod, 2014).
Values after ≈ are worked out from the molar mass of the structure shown.

How the values were obtained:
[1] = test system: K562; assay: Cytotoxicity against human K562 cells; assay type: functional; conditions: read-out: LC50 (the source's name)
[2] = test system: Escherichia coli; assay: Antimicrobial activity against Escherichia coli ATCC 35270 after 24 hrs by two-fold broth dilution method; assay type: functional; conditions: ATCC 35270, 24 h
[3] = test system: Salmonella enterica; assay: Antimicrobial activity against Salmonella enterica ATCC 14028 after 24 hrs by two-fold broth dilution method; assay type: functional; conditions: ATCC 14028, 24 h
[4] = Inhibition of sortase A (unknown origin)
[5] = test system: Bacillus spizizenii; assay: Antimicrobial activity against Bacillus subtilis ATCC 6633 after 24 hrs by two-fold broth dilution method; assay type: functional; conditions: ATCC 6633, 24 h
[6] = test system: Proteus hauseri; assay: Antimicrobial activity against Proteus hauseri NBRC 3851 after 24 hrs by two-fold broth dilution method; assay type: functional; conditions: NBRC 3851, 24 h
[7] = test system: Kocuria rhizophila; assay: Antimicrobial activity against Kocuria rhizophila NBRC 12708 after 24 hrs by two-fold broth dilution method; assay type: functional; conditions: NBRC 12708, 24 h
[8] = test system: Pyricularia grisea; assay: Inhibition of Magnaporthe grisea Guy 11 isocitrate lyase
[9] = test system: A549; assay: Cytotoxicity against human A549 cells; assay type: functional; conditions: read-out: LC50 (the source's name)
[10] = test system: Staphylococcus aureus; assay: Antimicrobial activity against Staphylococcus aureus ATCC 6538p after 24 hrs by two-fold broth dilution method; assay type: functional

SMILES	CC50 [1] [µg/mL]	MIC [2] [µg/mL]	MIC [3] [µg/mL]	IC50 [4] [µM]	MIC [5] [µg/mL]	MIC [6] [µg/mL]	MIC [7] [µg/mL]	MIC [8] [µg/mL]	CC50 [9] [µg/mL]	MIC [10] [µg/mL]
CC(=O)CCCCC/C(C)=C\C(=O)NCCS(=O)(=O)O	> 100	> 100	> 100	> 100	> 100	> 100	> 100	> 100	> 100	> 100
CC1(C)CCC[C@]2(C)[C@H]3CC/C(=C\OS(=O)(=O)[O-])[C@H](CCc4ccoc4)[C@@]3(C)CC[C@@H]12.C[N+](C)=C(N)N [SUVANINE]	0.9	> 100	25	> 100	12.5	100	> 100	–	1.7	> 100
CC1(C)CCC[C@]2(C)[C@H]3CC/C(=C\OS(=O)(=O)[O-])[C@H](CCC4=CC(=O)N(CCS(=O)(=O)O)C4)[C@@]3(C)CC[C@@H]12.[Na+]	3.6	> 100	> 100	> 100	> 100	> 100	> 100	50	3.5	> 100
O=C(O)CC[N+](=O)[O-]	–	–	–	> 100	–	–	–	2.5 (≈ 21 µM)	–	–
CC1(C)CCC[C@]2(C)[C@H]3CC/C(=C\OS(=O)(=O)[O-])[C@H](CCc4ccoc4)[C@@]3(C)CC[C@@H]12.C[N+](C)=C(N)N	–	–	–	–	–	–	–	51	–	–
COc1cccc2c1C(=O)c1c(O)c3c(c(O)c1C2=O)C[C@@](O)(C(=O)CO)C[C@@H]3O[C@H]1C[C@H](N)[C@H](O)[C@H](C)O1 [DOXORUBICIN]	0.7 (≈ 1.29 µM)	–	–	> 100	–	–	–	–	0.8 (≈ 1.47 µM)	–
CC1(C)S[C@@H]2[C@H](NC(=O)[C@H](N)c3ccccc3)C(=O)N2[C@H]1C(=O)O [AMPICILLIN]	–	3.12 (≈ 8.93 µM)	0.39 (≈ 1.12 µM)	> 100	0.39 (≈ 1.12 µM)	0.78 (≈ 2.23 µM)	0.39 (≈ 1.12 µM)	–	–	0.39 (≈ 1.12 µM)
CC1(C)CCC[C@]2(C)[C@H]3CC/C(=C\OS(=O)(=O)[O-])[C@H](CCc4ccoc4)[C@@]3(C)CC[C@@H]12.CN(C)c1n(C)c(=O)c2c([n+]1C)N(C)CN2C [listing 1 of 2 here]	2.2	> 100	0.78	> 100	0.78	6.25	6.25	–	1.9	6.25
C/C(=C/C(=O)NCCS(=O)(=O)[O-])CCCCC[C@H](C)O.[Na+]	> 100	–	> 100	> 100	–	–	–	> 100	> 100	> 100
C[C@@H]1O[C@@H](O[C@H]2C[C@@H](O)[C@]3(CO)[C@H]4[C@H](O)C[C@]5(C)[C@@H](C6=CC(=O)OC6)CC[C@]5(O)[C@@H]4CC[C@]3(O)C2)[C@H](O)[C@H](O)[C@H]1O [OUABAIN]	–	–	–	> 100	–	–	–	–	–	–
CC1(C)CCC[C@]2(C)[C@H]3CC/C(=C\OS(=O)(=O)[O-])[C@H](CCC4=CCN(CCS(=O)(=O)O)C4=O)[C@@]3(C)CC[C@@H]12.[Na+]	4.6	> 100	> 100	> 100	> 100	> 100	> 100	90	2	> 100
C[C@H](C(=O)O)N1CC=C(CC[C@H]2/C(=C/OS(=O)(=O)[O-])CC[C@H]3[C@]2(C)CC[C@H]2C(C)(C)CCC[C@]32C)C1=O.[Na+]	1.9	> 100	50	> 100	> 100	> 100	> 100	48	1.1	> 100
CC1(C)CCC[C@]2(C)[C@H]3CC/C(=C\OS(=O)(=O)[O-])[C@H](CCc4ccoc4)[C@@]3(C)CC[C@@H]12.CN(C)c1n(C)c(=O)c2c([n+]1C)N(C)CN2C [listing 2 of 2 here]	–	–	–	–	–	–	–	28	–	–
CC1(C)CCC[C@]2(C)[C@H]3CC/C(=C\OS(=O)(=O)[O-])[C@H](CCC4=CCN(CC(=O)O)C4=O)[C@@]3(C)CC[C@@H]12.[Na+]	1.3	> 100	> 100	> 100	> 100	> 100	> 100	62	1.4	> 100
CC(C)[C@@H](C(=O)O)N1CC(CC[C@H]2/C(=C/OS(=O)(=O)[O-])CC[C@H]3[C@]2(C)CC[C@H]2C(C)(C)CCC[C@]32C)=CC1=O.[Na+]	3.9	> 100	100	> 100	> 100	> 100	> 100	64	1.9	> 100
C[S+]([O-])CCCN1CC=C(CC[C@H]2/C(=C/OS(=O)(=O)[O-])CC[C@H]3[C@]2(C)CC[C@H]2C(C)(C)CCC[C@]32C)C1=O.[Na+] (stereo not given in full)	3.9	–	50	> 100	–	–	–	24	5.5	> 100
